# Assay results as given in ChEMBL document CHEMBL4422621, “Novel chalcone and flavone derivatives as selective and dual inhibitors of the transport proteins ABCB1 and ABCG2” (Eur J Med Chem, 2019).
# Assays:
# Format in all cases: cell-based
# ABCG2 (BCRP) = target: T1, ABCG2 (BCRP) (Homo sapiens, UniProt Q9UNQ0); assay: (§1) Inhibition of ABCG2 (unknown origin) expressed in MDCK II BCRP cells assessed as effect on heophorbide A accumulation at 5 to 10 uM after 120 mins by flow cytometric analysis relative to control; conditions: MDCK II BCRP cells expressing ABCG2, probe pheophorbide A
# T1 sequence (Q9UNQ0 whole entry): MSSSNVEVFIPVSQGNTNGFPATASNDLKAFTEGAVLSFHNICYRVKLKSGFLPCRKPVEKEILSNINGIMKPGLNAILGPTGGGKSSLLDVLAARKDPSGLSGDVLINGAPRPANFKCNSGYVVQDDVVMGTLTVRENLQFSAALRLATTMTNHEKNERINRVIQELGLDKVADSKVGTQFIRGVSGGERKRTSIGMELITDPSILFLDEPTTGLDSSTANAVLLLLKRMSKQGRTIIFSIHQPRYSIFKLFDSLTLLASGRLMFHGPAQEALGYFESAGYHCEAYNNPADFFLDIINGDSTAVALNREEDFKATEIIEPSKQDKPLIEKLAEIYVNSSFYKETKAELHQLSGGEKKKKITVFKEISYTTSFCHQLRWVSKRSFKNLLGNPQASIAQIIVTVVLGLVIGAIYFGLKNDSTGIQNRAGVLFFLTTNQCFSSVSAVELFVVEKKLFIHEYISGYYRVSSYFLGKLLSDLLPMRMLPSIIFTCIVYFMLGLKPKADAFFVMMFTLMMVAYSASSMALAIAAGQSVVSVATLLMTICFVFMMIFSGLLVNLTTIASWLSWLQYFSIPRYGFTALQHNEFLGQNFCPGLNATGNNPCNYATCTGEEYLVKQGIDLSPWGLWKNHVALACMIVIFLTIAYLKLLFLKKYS
# [1] = target: T2, Broad substrate specificity ATP-binding cassette transporter ABCG2 (Homo sapiens, UniProt Q9UNQ0); assay: Inhibition of ABCG2 (unknown origin) expressed in MDCK II BCRP cells assessed as effect on pheophorbide A accumulation after 120 mins by flow cytometric analysis
# T2 sequence (Q9UNQ0 whole entry): T1 sequence (Q9UNQ0 whole entry)
# [2] = target: T2, Broad substrate specificity ATP-binding cassette transporter ABCG2; assay: as §1; conditions: 2 h
smiles,measurement,setting,value
COc1cc(C(=O)/C=C/c2cc(OC)c(OC)c(OC)c2)ccc1OCC(=O)Nc1ccc2c(c1)COC2=O,inhibition at 2 h,ABCG2 (BCRP),≥ 25%
same,IC50,[1],11.4 µM
COc1cc(-c2oc3ccccc3c(=O)c2OCC(=O)Nc2ccc3c(c2)COC3=O)cc(OC)c1OC,inhibition at 2 h,ABCG2 (BCRP),≥ 25%
same,IC50,[1],9 µM
O=C(COc1ccc(C(=O)/C=C/c2ccc([N+](=O)[O-])cc2)cc1)Nc1ccc2c(c1)COC2=O,inhibition (INH),[2],Not Active
O=C(COc1ccc(C(=O)/C=C/c2cccs2)cc1)Nc1ccc2c(c1)COC2=O,inhibition (INH),[2],Not Active
CCCOc1ccc(/C=C/C(=O)c2ccc(OCC(=O)Nc3ccc4c(c3)COC4=O)cc2)cc1,inhibition (INH),[2],Not Active
COc1ccc(/C=C/C(=O)c2ccc(OCC(=O)Nc3ccc4c(c3)COC4=O)cc2)cc1OC,inhibition at 2 h,ABCG2 (BCRP),≥ 25%
same,IC50,[1],6.63 µM
O=C(COc1ccc(C(=O)/C=C/c2ccccc2Cl)cc1)Nc1ccc2c(c1)COC2=O,inhibition (INH),[2],Not Active
O=C(COc1ccc(C(=O)/C=C/c2c(F)cccc2F)cc1)Nc1ccc2c(c1)COC2=O,inhibition at 2 h,ABCG2 (BCRP),≥ 25%
same,IC50,[1],10.9 µM
COc1ccc(NC(=O)COc2ccc(C(=O)/C=C/c3ccco3)cc2)cc1OC,inhibition at 2 h,ABCG2 (BCRP),≥ 25%
same,IC50,[1],5.4 µM
O=C(COc1ccc(C(=O)/C=C/c2ccc(OCc3ccc(Cl)cc3)cc2)cc1)Nc1ccc2c(c1)COC2=O,inhibition (INH),[2],Not Active
O=C(COc1ccc(C(=O)/C=C/c2ccc(OCc3ccc(Cl)cc3Cl)cc2)cc1)Nc1ccc2c(c1)COC2=O,inhibition (INH),[2],Not Active
COc1ccc(NC(=O)COc2ccc(C(=O)/C=C/c3ccc(Cl)cc3)cc2)cc1OC,inhibition at 2 h,ABCG2 (BCRP),≥ 25%
same,IC50,[1],6.95 µM
COc1cc(/C=C/C(=O)c2ccc(OCC(=O)Nc3ccc4c(c3)COC4=O)cc2)cc(OC)c1OC,inhibition at 2 h,ABCG2 (BCRP),≥ 25%
same,IC50,[1],8.44 µM
O=C(COc1ccc(C(=O)/C=C/c2c(F)cccc2F)cc1)NCc1ccc2c(c1)OCO2,inhibition (INH),[2],Not Active
O=C(COc1ccc(C(=O)/C=C/c2ccccc2)cc1)Nc1ccc2c(c1)COC2=O,inhibition (INH),[2],Not Active
CCCCOc1ccc(/C=C/C(=O)c2ccc(OCC(=O)Nc3ccc4c(c3)COC4=O)cc2)cc1,inhibition (INH),[2],Not Active
COc1ccc(/C=C/C(=O)c2ccc(OCC(=O)Nc3ccc4c(c3)COC4=O)cc2)cc1,inhibition (INH),[2],Not Active
O=C(COc1ccc(C(=O)/C=C/c2ccc(OCc3ccccc3)cc2)cc1)Nc1ccc2c(c1)COC2=O,inhibition (INH),[2],Not Active
COc1ccc(/C=C/C(=O)c2ccc(OCC(=O)NCc3ccc4c(c3)OCO4)cc2)cc1,inhibition at 2 h,ABCG2 (BCRP),≥ 25%
same,IC50,[1],10 µM
COc1ccc(/C=C/C(=O)c2cccc(OCC(=O)Nc3ccc4c(c3)COC4=O)c2)cc1OC,inhibition at 2 h,ABCG2 (BCRP),≥ 25%
same,IC50,[1],12 µM
CCOc1ccc(/C=C/C(=O)c2ccc(OCC(=O)Nc3ccc4c(c3)COC4=O)cc2)cc1,inhibition at 2 h,ABCG2 (BCRP),≥ 25%
same,IC50,[1],20.1 µM
O=C(COc1ccc(/C=C/C(=O)c2ccc(F)cc2)cc1)Nc1ccc2c(c1)COC2=O,inhibition (INH),[2],Not Active
COc1cccc(/C=C/C(=O)c2ccc(OCC(=O)Nc3ccc4c(c3)COC4=O)cc2)c1,inhibition (INH),[2],Not Active
CCOc1ccc(/C=C/C(=O)c2ccc(OCC(=O)NCc3ccc4c(c3)OCO4)cc2)cc1,inhibition (INH),[2],Not Active
COc1ccc(/C=C/C(=O)c2cccc(OCC(=O)Nc3ccc(OC)c(OC)c3)c2)cc1OC,inhibition at 2 h,ABCG2 (BCRP),≥ 25%
same,IC50,[1],6.33 µM
O=C(COc1ccc(C(=O)/C=C/c2ccco2)cc1)Nc1ccc2c(c1)COC2=O,inhibition (INH),[2],Not Active
O=C(COc1c(-c2ccccc2)oc2ccccc2c1=O)Nc1ccc2c(c1)COC2=O,inhibition at 2 h,ABCG2 (BCRP),≥ 25%
same,IC50,[1],13.1 µM
COc1ccc(-c2oc3ccccc3c(=O)c2OCC(=O)Nc2ccc3c(c2)COC3=O)cc1,inhibition (INH),[2],Not Active
COc1cc(-c2c(OCC(=O)Nc3cccc4ccccc34)oc3ccccc3c2=O)cc(OC)c1OC,inhibition at 2 h,ABCG2 (BCRP),≥ 25%
same,IC50,[1],10.5 µM
COc1ccc(-c2oc3ccccc3c(=O)c2OCC(=O)Nc2ccc3c(c2)COC3=O)cc1OC,inhibition (INH),[2],Not Active
Cc1ccc(-c2oc3ccccc3c(=O)c2OCC(=O)Nc2ccc3c(c2)COC3=O)cc1,inhibition (INH),[2],Not Active
